Data as given in paper PMC11855827, “High-Throughput Screening of Five Compound Libraries for Anthelmintic Activity and Toxicity Leads to the Discovery of Two Flavonoid Compounds” (International Journal of Molecular Sciences, 2025).
Values joined by “and” are separate entries in the source; they are usually repeats but may differ in a detail not shown here. Identical values can stand only once. Where a SMILES comes first, the peptide text is derived from it. The star is where a group is joined. βNA = c1ccc2cc(N*)ccc2c1

Tested on: C. elegans
Conditions: Table S2, C. elegans SS assay, 110 μM, averages of 4 data points

Structure (SMILES) | Percentage of motility inhibition 0 h | Percentage of motility inhibition 24 h
COc1ccc(/C=C/C(=O)O[C@@H]2[C@H](O[C@@H]3O[C@@H](C)[C@H](O)[C@@H](O)[C@H]3O)[C@@H](O[C@@H]3O[C@@H](C)[C@H](O[C@@H]4OC[C@@H](O[C@@H]5O[C@H](CO)[C@H](O)[C@H](O)[C@H]5O)[C@H](O)[C@H]4O)[C@@H](O)[C@H]3O)[C@H](OC(=O)[C@]34CCC(C)(C)C[C@H]3C3=CC[C@@H]5[C@@]6(C)C[C@H](O)[C@H](O[C@@H]7O[C@H](CO)[C@@H](O)[C@H](O)[C@H]7O)[C@@](C)(C(=O)O)[C@@H]6CC[C@@]5(C)[C@]3(CO)CC4)O[C@@H]2C)cc1 [Onjisaponin B] | 30% | 33%
COc1cc(/C=C/C(=O)O[C@@H]2[C@H](O[C@@H]3O[C@@H](C)[C@H](O)[C@@H](O)[C@H]3O)[C@@H](O[C@@H]3O[C@@H](C)[C@H](O[C@@H]4OC[C@@H](O)[C@H](O)[C@H]4O)[C@@H](O)[C@H]3O)[C@H](OC(=O)[C@]34CCC(C)(C)C[C@H]3C3=CC[C@@H]5[C@@]6(C)C[C@H](O)[C@H](O[C@@H]7O[C@H](CO)[C@@H](O)[C@H](O)[C@H]7O)[C@@](C)(C(=O)O)[C@@H]6CC[C@@]5(C)[C@]3(CO)CC4)O[C@@H]2C)cc(OC)c1OC [Onjisaponin Z] | 4% | 21%
CN[C@H](CC(C)C)C(=O)N[C@H]1C(=O)N[C@@H](CC(N)=O)C(=O)N[C@H]2C(=O)N[C@H]3C(=O)N[C@H](C(=O)N[C@H](C(=O)O)c4cc(O)cc(O)c4-c4cc3ccc4O)[C@H](O[C@H]3C[C@](C)(N)[C@@H](O)[C@H](C)O3)c3ccc(c(Cl)c3)Oc3cc2cc(c3O[C@@H]2O[C@H](CO)[C@@H](O)[C@H](O)[C@H]2O[C@H]2C[C@](C)(NCc3ccc(-c4ccc(Cl)cc4)cc3)[C@@H](O)[C@H](C)O2)Oc2ccc(cc2Cl)[C@H]1O.O=P(O)(O)O.O=P(O)(O)O [Oritavancin (diphosphate)] | 34% | 8%
Cc1ncc([N+](=O)[O-])n1CC(O)CCl (stereo not shown) [Ornidazole (Levo‐)] | 27% | 23%
O=c1cc(-c2ccccc2)oc2cc(O[C@@H]3O[C@H](CO)[C@@H](O)[C@H](O)[C@H]3O)c(O)c(O)c12 [Oroxin A] | 0% | 1%
O=c1cc(-c2ccccc2)oc2cc(O[C@@H]3O[C@H](CO[C@@H]4O[C@H](CO)[C@@H](O)[C@H](O)[C@H]4O)[C@@H](O)[C@H](O)[C@H]3O)c(O)c(O)c12 [Oroxin B] | 0% | 0%
COc1c(O[C@@H]2O[C@H](C(=O)O)[C@@H](O)[C@H](O)[C@H]2O)cc2oc(-c3ccccc3)cc(=O)c2c1O [Oroxylin A‐7‐O‐glucuronide] | 0% | 1%
CCOC(=O)C1=C[C@@H](OC(CC)CC)[C@H](NC(C)=O)[C@@H](N)C1.O=P(O)(O)O [Oseltamivir ( phosphate)] | 0% | 0%
CCC(CC)O[C@@H]1C=C(C(=O)O)C[C@H](N)[C@H]1NC(C)=O [Oseltamivir (acid)] | 18% | 8%
C[C@@H]1O[C@@H](O[C@H]2C[C@@H](O)[C@]3(CO)[C@H]4[C@H](O)C[C@]5(C)[C@@H](C6=CC(=O)OC6)CC[C@]5(O)[C@@H]4CC[C@]3(O)C2)[C@H](O)[C@H](O)[C@H]1O.O.O.O.O.O.O.O.O [Ouabain (Octahydrate)] | 0% | 2%
Cc1onc(-c2ccccc2)c1C(=O)N[C@@H]1C(=O)N2[C@@H]1SC(C)(C)[C@@H]2C(=O)[O-].O.[Na+] [Oxacillin (sodium monohydrate)] | 27% | 9%
CN1CCCN=C1/C=C/c1cccc(O)c1.O=C(O)c1cc2ccccc2c(Cc2c(O)c(C(=O)O)cc3ccccc23)c1O [Oxantel (pamoate)] | 54% | 33%
O=C1CCCC2C3CCC[N+]4([O-])CCCC(CN12)C34 (stereo not shown) [Oxysophoridine] | 18% | 9%
CN1CC[C@@]23C=C[C@H](O)C[C@@H]2Oc2c(O)ccc(c23)C1 [O‐Desmethyl Galantha mine] | 4% | 5%
Cl.Cl.NC(N)=NCCC[C@H](NC(=O)[C@@H](N)Cc1ccccc1)C(=O)Nc1ccc2ccccc2c1 [PAβN (dihydrochloride)] (H-Phe-Arg-βNA) | 9% | 6%
C[C@@]1(F)[C@H](O)[C@@H](CO)O[C@H]1n1ccc(=O)[nH]c1=O [PSI‐6206] | 19% | 5%
CC(=O)O[C@H]1C(=O)[C@@]2(C)[C@H]([C@H](OC(=O)c3ccccc3)[C@]3(O)C[C@H](OC(=O)[C@H](O)[C@@H](NC(=O)c4ccccc4)c4ccccc4)C(C)=C1C3(C)C)[C@]1(OC(C)=O)CO[C@@H]1C[C@@H]2O [Paclitaxel] | 18% and 29% | 12% and 23%

Structure (SMILES) | Percentage of motility inhibition 0 h | Percentage of motility inhibition 24 h
CSC(=O)OCC1=C[C@@H]2OC(=O)C3=CO[C@@H](O[C@@H]4O[C@H](CO)[C@@H](O)[C@H](O)[C@H]4O)[C@H]1[C@@H]32 [Paederoside] | 9% | 4%
CSC(=O)OCC1=C[C@H](O)[C@H]2C(C(=O)O)=CO[C@@H](O[C@@H]3O[C@@H](CO)[C@@H](O)[C@@H](O)[C@H]3O)[C@H]12 [Paederosidic acid] | 0% | 0%
COc1cc2c(cc1OC)-c1cc3ccc(OC)c(OC)c3c[n+]1CC2.[Cl-] [Palmatine (chloride)] | – | 0%
COc1cc2c(cc1OC)-c1cc3ccc(OC)c(OC)c3c[n+]1CC2.[OH-] [Palmatine (hydroxide)] | 1% | 0%
COc1cc2c(cc1OC)-c1cc3ccc(OC)c(O)c3c[n+]1CC2.[OH-] [Palmaturbine (hydroxide)] | 0% | 8%
O=c1c(O[C@@H]2O[C@H](CO)[C@H](O)[C@H](O)[C@H]2O[C@@H]2O[C@H](CO)[C@@H](O)[C@H](O)[C@H]2O)c(-c2ccc(O)cc2)oc2cc(O)cc(O)c12 [Panasenoside] | 6% | 31%
O=C(CC(O)(CC(=O)OCc1ccc(OC2OC(CO)C(O)C(O)C2O)cc1)C(=O)OCc1ccc(OC2OC(CO)C(O)C(O)C2O)cc1)OCc1ccc(OC2OC(CO)C(O)C(O)C2O)cc1 (stereo not shown) [Parishin] | 0% | 12%
NC[C@@H]1O[C@H](O[C@H]2[C@@H](O)[C@H](O[C@@H]3[C@@H](O)[C@H](N)C[C@H](N)[C@H]3O[C@H]3O[C@H](CO)[C@@H](O)[C@H](O)[C@H]3N)O[C@@H]2CO)[C@H](N)[C@@H](O)[C@@H]1O.O=S(=O)(O)O [Paromomycin (sulfate)] | 14% | 2%
C[C@H]1CC[C@@]2(O)C(C)(C)[C@@H]3CC[C@@]2(C)[C@H]1C3 [Patchouli alcohol] | 24% | 35%
CS(=O)(=O)O.C[C@H]1COc2c(C3(N)CC3)c(F)cc3c(=O)c(C(=O)O)cn1c23 [Pazufloxacin (mesylate)] | 28% | 2%
CCn1cc(C(=O)O)c(=O)c2cc(F)c(N3CCN(C)CC3)cc21.CS(=O)(=O)O [Pefloxacin (mesylate)] | 9% | 8%
C[C@H]1CC[C@@H]2N(C1)C[C@H]1[C@@H]3C[C@H]4[C@@H](C[C@H](O)[C@H]5C[C@@H](O)CC[C@@]54C)[C@@H]3CC[C@@H]1[C@]2(C)O [Peimine] | 7% | 0%
C[C@H]1CCC2N(C1)C[C@H]1C3CC4[C@@H](CC(=O)C5C[C@@H](O)CC[C@@]54C)C3CCC1[C@]2(C)O (stereo partly shown) [Peiminine] | 0% | 19%
CC1=C2C[C@H]3[C@@H](CC(=O)[C@H]4C[C@@H](O)CC[C@@]43C)[C@@H]2CC[C@]12O[C@@H]1C[C@H](C)CN[C@H]1[C@H]2C [Peimisine] | 0% | 0%
CC1(C)S[C@@H]2[C@H](NC(=O)Cc3ccccc3)C(=O)N2[C@H]1C(=O)[O-].[K+] [Penicillin G (potassium)] | 14% | 8%
CC1(C)S[C@@H]2[C@H](NC(=O)COc3ccccc3)C(=O)N2[C@H]1C(=O)[O-].[K+] [Penicillin V (Potassium)] | 23% | 24%
N=C(N)c1ccc(OCCCCCOc2ccc(C(=N)N)cc2)cc1.O=S(=O)(O)CCO.O=S(=O)(O)CCO [Pentamidine (isethionate)] | 0% | 0%
